Data on 4 compounds can be found in patent US4585757A, “Hypotensive active peptides” (Texas Tech University Health Sciences Center, priority 1984, dated 1986).

One assay relates to Mongrel dogs. Briefly: dog blood pressure assay. Type of assay: in vivo. To be noted: dose 3 × 10^-9 moles/kg, mean of 4 replications.
Assay [1] has as its system rat tail artery helical strip. On the set-up: dose or concentration left out as unconfirmed. The conditions noted are these: strips contracted with arginine vasopressin.
Description: Male and female Sprague-Dawley rats were anesthetized with pentobarbital (50 mg/kg) before removal of the tail artery. Upon isolation the artery was placed in ice cold Krebs-Hensleit solution (KHS) which was oxygenated with 95% O2, 5% CO2. The vessels were cut helically and strips of approximately 1.5 cm were secured in a Sawyer-Bartleston chamber containing KHS. The development of force of the helical strips was measured with a Grass FT.03 force displacement transducer and recorded on a Grass Model 79D polygraph. Isolated tail artery helical strips were equilibrated for one hour prior to addition of any peptide. In all cases, the strips were first contracted by adding arginine vasopressin (AVP), to the bath. The peptide being studied was then added to the bath and the degree of relaxation was determined.
The next assay deals with Sprague-Dawley rats. Briefly: rat blood pressure assay. The assay is classed as in vivo. The conditions noted are these: anesthetized rat, mean of 4 replications. Here is the method:
The rat blood pressure assay was conducted as follows: Sprague-Dawley rats of both sexes, weighing between 100 and 200 grams, were anesthetized with sodium pentobarbital and the right carotid artery and jugular vein were cannulated with polyethylene tubing PE50. The hypotensive peptide was administered and blood pressure was recorded in the anesthetized rats as described above for dogs.

Read-outs that look alike come from different tables or passages of the source. Peptide text beside a SMILES is read from it.

Description for Mongrel dogs: The dog blood pressure assay was conducted according to the following method:
Mongrel dogs of either sex weighing between 6-15 kg were anesthetized by intravenous injection of sodium pentobarbital (30 mg/kg). The femoral artery and vein were cannulated for the measurement of blood pressure and the injection of drugs, respectively. Arterial blood pressure was determined with a Statham pressure transducer and was recorded on a Grass polygraph. Mean arterial pressure (MAP) were calculated for the periods before and after each peptide injection. A tracheotomy was performed to insure a patient airway for spontaneous respiration.
Hypotensive screening studies involved injecting each dog with 0.1; 0.5; 1.0; and 2.0 ug/kg. The CIP as supplied by Peninsula Laboratories was in the lyophilyzed form. Prior to injection the CIP was dissolved in saline.

For `NC(N)=NCCC[C@H](NC(=O)[C@H](Cc1ccccc1)NC(=O)[C@@H]1CCCN1C(=O)[C@H](CO)NC(=O)[C@H](Cc1ccccc1)NC(=O)CNC(=O)[C@@H]1CCCN1C(=O)[C@@H]1CCCN1C(=O)[C@@H](N)CCCN=C(N)N)C(=O)O` [Bradykinin] (H-RPPGFSPFR-OH), the “Maximum Decrease in Blood Pressure” value in the assay with Mongrel dogs was 44 mmHg.

On to `N=C(N)NCCC[C@H](N)C(=O)O` [L Arg, L-arginine], for which the Tension change in assay [1] (dose of 100), in assay [1] (dose of 200) and in assay [1] (dose of 500) was 0 gm throughout.

Regarding `O=C(O)[C@@H]1CCCN1` [L Pro, L-proline], the Tension change in assay [1] (dose of 100), in assay [1] (dose of 200) and in assay [1] (dose of 500) was 0 gm each time.

For the compound “Thy-Pro-Arg-Lys [Contraceptive tetrapeptide]”, the “Blood Pressure Decrease” value in the assay on Sprague-Dawley rats (dose 100.0 ug/kg) came out at 2 mmHg; in the assay on Sprague-Dawley rats (dose 200.0 ug/kg) it was 3 mmHg; in the assay on Sprague-Dawley rats (dose 500.0 ug/kg) it was 9 mmHg; with Sprague-Dawley rats (dose 1000.0 ug/kg) it was 13 mmHg; with Sprague-Dawley rats (dose 2000.0 ug/kg), 15 mmHg.
